# Data: publication PMC9249791, “Molecular dissection of the glutamine synthetase-GlnR nitrogen regulatory circuitry in Gram-positive bacteria” (Nature Communications, 2022)
# Legend:
# Type in all cases: binding
# Lm GS = molecular target: T1, Lm GS (Listeria monocytogenes, UniProt A0A5D5GA79); assay: cryo-EM structure […] Å; conditions: 20 mM glutamine, 5 mM MgCl2, pH 7.5, with GlnR C-tail peptide; overlaps glutamate site
# T1 construct: gene glnA; full-length, synthetic gene in pET15b, N-terminal His-tag, E. coli C41(DE3); apo dodecamer
# T1 sequence (A0A5D5GA79 1-444): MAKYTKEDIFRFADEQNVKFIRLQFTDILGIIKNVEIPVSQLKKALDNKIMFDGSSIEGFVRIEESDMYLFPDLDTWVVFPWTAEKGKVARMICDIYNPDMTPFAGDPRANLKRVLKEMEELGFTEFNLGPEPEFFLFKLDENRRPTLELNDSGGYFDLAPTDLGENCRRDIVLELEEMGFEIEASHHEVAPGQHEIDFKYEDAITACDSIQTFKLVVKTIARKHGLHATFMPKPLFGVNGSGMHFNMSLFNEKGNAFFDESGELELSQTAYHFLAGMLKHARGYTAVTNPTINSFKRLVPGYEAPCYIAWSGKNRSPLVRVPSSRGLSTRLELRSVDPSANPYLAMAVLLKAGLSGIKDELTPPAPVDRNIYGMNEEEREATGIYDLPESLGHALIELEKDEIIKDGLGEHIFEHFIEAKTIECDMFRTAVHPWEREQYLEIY
# Pp GS = molecular target: T2, Pp GS (Paenibacillus polymyxa, UniProt A0A0F0G8G2); assay: cryo-EM structure […]-2.[…] Å; conditions: 20 mM glutamine, 5 mM MgCl2, pH 7.5, with GlnR C-tail peptide; overlaps glutamate site
# T2 construct: gene glnA2; full-length, synthetic gene in pET15b, N-terminal His-tag (removed by thrombin for crystallography), E. coli C41(DE3)
# T2 sequence (A0A0F0G8G2 1-442): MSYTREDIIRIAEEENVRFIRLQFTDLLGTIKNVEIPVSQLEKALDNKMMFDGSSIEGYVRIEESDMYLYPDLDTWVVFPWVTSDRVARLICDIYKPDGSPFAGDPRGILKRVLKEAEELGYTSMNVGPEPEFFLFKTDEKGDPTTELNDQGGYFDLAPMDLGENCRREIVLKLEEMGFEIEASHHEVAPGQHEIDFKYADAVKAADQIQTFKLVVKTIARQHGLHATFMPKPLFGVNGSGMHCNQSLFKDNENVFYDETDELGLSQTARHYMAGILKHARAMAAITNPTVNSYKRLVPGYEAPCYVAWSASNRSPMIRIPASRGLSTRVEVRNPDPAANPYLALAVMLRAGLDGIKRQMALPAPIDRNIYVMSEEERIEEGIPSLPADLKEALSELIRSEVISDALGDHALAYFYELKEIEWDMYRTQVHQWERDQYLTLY
# Sa GS = molecular target: T3, Sa GS (Staphylococcus aureus, UniProt P0A040); assay: isothermal titration calorimetry
# T3 construct: gene glnA; full-length, synthetic gene in pET15b, N-terminal His-tag, E. coli C41(DE3); tag removed only for crystallography; dodecamer (double hexamer ring)
# T3 sequence (P0A040 1-446): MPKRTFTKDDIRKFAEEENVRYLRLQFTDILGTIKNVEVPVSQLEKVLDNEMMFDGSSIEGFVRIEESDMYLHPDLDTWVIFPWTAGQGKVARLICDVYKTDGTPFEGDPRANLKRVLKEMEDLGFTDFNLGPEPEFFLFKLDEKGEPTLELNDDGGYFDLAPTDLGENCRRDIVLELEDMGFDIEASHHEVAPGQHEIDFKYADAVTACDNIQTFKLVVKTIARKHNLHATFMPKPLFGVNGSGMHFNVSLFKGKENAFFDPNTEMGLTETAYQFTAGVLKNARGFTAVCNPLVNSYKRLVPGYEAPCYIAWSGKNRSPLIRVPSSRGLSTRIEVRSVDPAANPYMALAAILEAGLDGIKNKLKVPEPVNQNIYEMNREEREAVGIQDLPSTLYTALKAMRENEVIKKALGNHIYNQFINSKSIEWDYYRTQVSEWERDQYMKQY
# Bs GS = molecular target: T4, Bs GS (Bacillus subtilis, UniProt P12425); assay: cryo-EM structure […] Å; conditions: 20 mM glutamine, 5 mM MgCl2, pH 7.5, with GlnR C-tail peptide; overlaps glutamate site
# T4 construct: gene glnA; full-length, synthetic gene in pET15b, N-terminal His-tag, E. coli C41(DE3); apo dodecamer
# T4 sequence (P12425 1-444): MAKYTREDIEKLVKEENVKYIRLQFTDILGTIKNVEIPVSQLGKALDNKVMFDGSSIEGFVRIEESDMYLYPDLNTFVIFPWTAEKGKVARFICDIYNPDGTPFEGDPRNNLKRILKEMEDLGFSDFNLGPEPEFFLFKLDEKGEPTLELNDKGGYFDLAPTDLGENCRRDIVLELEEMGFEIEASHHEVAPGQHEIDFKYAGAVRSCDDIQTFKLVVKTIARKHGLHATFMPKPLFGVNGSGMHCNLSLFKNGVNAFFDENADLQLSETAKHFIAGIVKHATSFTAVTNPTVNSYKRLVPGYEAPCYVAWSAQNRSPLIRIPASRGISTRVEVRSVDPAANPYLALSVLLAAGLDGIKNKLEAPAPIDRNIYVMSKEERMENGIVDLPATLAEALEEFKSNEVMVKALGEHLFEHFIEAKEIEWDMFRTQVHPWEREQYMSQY
smiles,measurement,setting,value
NC(=O)CC[C@H](N)C(=O)O [glutamine],cryo-EM structure 2.61 Å,Lm GS,Glutamine binds identically in each structure to form FBI-GS
same,cryo-EM structure 2.07-2.28 Å,Pp GS,Glutamine binds identically in each structure to form FBI-GS
same,Kd,Sa GS,500 µM
same,cryo-EM structure 1.96 Å,Bs GS,Glutamine binds identically in each structure to form FBI-GS
